Publication PMC11359915, “Rattlesnake Crotalphine Analgesic Active on Tetrodotoxin-Sensitive Na^+ Current in Mouse Dorsal Root Ganglion Neurons” (Toxins, 2024)

Key:
DRG neurons = type: cell-based, adult mouse (Swiss, Mus musculus); details: positive control, 0.1%, 5–75 min; mean ± S.E.M., n = 4
Protocol: The CHO epithelial cell line was cultured as previously described. Primary cultures of DRG neurons were performed using adult female Swiss mice (Mus musculus, 8–12 weeks of age and 25–32 g body weight), purchased from Janvier Elevage (Le Genest-Saint-Isle, France) and acclimatized at the CEA animal facility for at least 48 hr before the experiments. All experimental procedures on mice were permitted by the Animal Ethics Committee of the CEA and the French General Directorate for Research and Innovation (project APAFIS#26651-2020072011192542v1, authorized for E.B. on 20 July 2020 for 5 years). […]
Cell viability was quantified by propidium iodide and trypan blue dye exclusion assays. […] The percentage of viable cells (i.e., the number of non-fluorescent cells relative to the number of total cells) was determined using the ImageJ 1.53g software (National Institutes of Health, Bethesda, MD, USA). At the end of the experiments, the total fluorescence of each well (function of the amount of propidium iodide-positive dead cells) was measured using a CLARIOstar® Plus microplate reader (BMG Labtech, Champigny-Sur-Marne, France).
The data are expressed as the means ± standard error of the mean (S.E.M.) of n different experiments. […]

[1] = test system: NaV1.7 component of the TTX-sensitive Na^+ current of DRG neurons; type: cell-based, adult mouse (Swiss, Mus musculus)
hNaV1.7 = details: cited from earlier work
hNaV1.1 = details: ref [22],[23],[24]; cited from earlier work
hNaV1.2–1.6 and hNaV1.8 = details: ref [22],[23],[24]; cited from earlier work
[2] = test system: NaV channels and voltage-sensitive potassium (KV) channels; details: initially NaV channels, later KV channels; ref [28],[29],[30],[31],[32]; cited from earlier work
Description: (§1) To the best of our knowledge, such an effect of the crotalid peptide on cell plasma membrane constituents has never been described in the literature. The simplest explanation is that crotalphine interacts also with lipid membrane constituents since interactions between gating modifier toxins and the lipid membranes surrounding the channel have been previously evidenced. It is therefore likely that, in addition to the Na^+ channel subtype NaV1.7, the crotalid peptide targets also a second cell plasma membrane component. Further experiments are still needed to identify this second me ...

certain cells = details: ref [28],[29],[30],[31],[32]; cited from earlier work
Description: as §1

triton X-100
decrease in viability of DRG neurons (DRG neurons): 89.1 ± 1.7%

NC1=N[C@H](O)[C@H]2[C@H]3O[C@]4(O)O[C@@H]([C@@H](O)[C@@]2(N1)[C@@H]4O)[C@]3(O)CO [TTX, tetrodotoxin]
Na^+ current decreased to % of the initial peak amplitude [1]: 8.1 ± 5.1% | recovery of the current after washout [1]: 83.5 ± 4.5%

ProTx-II: tarantula venom peptide, a well-known selective inhibitor of the NaV1.7 channel subtype
decrease in the TTX-sensitive Na^+ current amplitude ([1]; 10 nM, n = 3, unpublished data): 79.2 ± 4.8% | IC50 (hNaV1.7): 0.3 to 1.6 nM | IC50 (hNaV1.1): 16 nM | IC50 (hNaV1.2–1.6 and hNaV1.8): > 25 nM

crotamine: the most abundant protein in the Crotalus durissus terrificus's venom (YKQCHKKGGHCFPKEKICLPPSSDFGKMDCRWRWKCCKKGSG; UniProt Q9PWF3 23-64, looked up)
effect on functioning of ionic channels [2]: alter the functioning of ionic channels | effect on cell viability (certain cells): decrease the viability of certain cells
